# Laboratory results reported in ChEMBL document CHEMBL2429805, “Studies toward the development of new silicon-containing building blocks for the direct (18)F-labeling of peptides” (J Med Chem, 2013).
# Experiments:
# Stomach [1] = assay: Biodistribution in stomach of NMRI nude mouse xenografted with human PC3 cells after 104 mins by gamma-counting analysis; assay type: ADME, organism-based, PC-3; details: in vivo
# Mus musculus [2] = assay: Biodistribution in tumor of NMRI nude mouse xenografted with human PC3 cells at 3.6 to 5.1 MBq after 62 to 170 mins by PET imaging analysis; assay type: ADME, organism-based, Neoplasm, PC-3; details: in vivo
# Mus musculus [3] = assay: Biodistribution in prostate of NMRI nude mouse xenografted with human PC3 cells after 182 mins by gamma-counting analysis; assay type: ADME, organism-based, Prostate gland, PC-3; details: in vivo
# [4] = Biodistribution in fat of NMRI nude mouse xenografted with human PC3 cells after 104 mins by gamma-counting analysis; assay type: ADME, organism-based, Adipose tissue, PC-3; details: in vivo
# Lung [5] = assay: Biodistribution in lung of NMRI nude mouse xenografted with human PC3 cells after 104 mins by gamma-counting analysis; assay type: ADME, organism-based, PC-3; details: in vivo
# Liver [6] = assay: Biodistribution in liver of NMRI nude mouse xenografted with human PC3 cells after 104 mins by gamma-counting analysis; assay type: ADME, organism-based, PC-3; details: in vivo
# Mus musculus [7] = assay: Biodistribution in adrenal gland of NMRI nude mouse xenografted with human PC3 cells after 104 mins by gamma-counting analysis; assay type: ADME, organism-based, PC-3; details: in vivo
# Mus musculus [8] = assay: Biodistribution in gallbladder of NMRI nude mouse xenografted with human PC3 cells after 182 mins by gamma-counting analysis; assay type: ADME, organism-based, Gall bladder, PC-3; details: in vivo
# [9] = Biodistribution in urine of NMRI nude mouse xenografted with human PC3 cells after 104 mins by gamma-counting analysis; assay type: ADME, organism-based, PC-3; details: in vivo
# Mus musculus [10] = assay: Biodistribution in tumor of NMRI nude mouse xenografted with human PC3 cells after 182 mins by gamma-counting analysis; assay type: ADME, organism-based, Neoplasm, PC-3; details: in vivo
# Mus musculus [11] = assay: Biodistribution in abdominal region of NMRI nude mouse xenografted with human PC3 cells at 3.6 to 5.1 MBq after 62 to 170 mins by PET imaging analysis; assay type: ADME, organism-based, Abdomen, PC-3; details: in vivo
# [12] = Biodistribution in fat of NMRI nude mouse xenografted with human PC3 cells after 182 mins by gamma-counting analysis; assay type: ADME, organism-based, Adipose tissue, PC-3; details: in vivo
# Blood [13] = assay: Biodistribution in blood of NMRI nude mouse xenografted with human PC3 cells after 182 mins by gamma-counting analysis; assay type: ADME, organism-based, PC-3; details: in vivo
# [14] = Ratio of biodistribution in tumor to blood of NMRI nude mouse xenografted with human PC3 cells after 104 mins by gamma-counting analysis; assay type: ADME, organism-based, PC-3; details: tumour
# [15] = Stability of the compound in PBS buffer up to 2 hrs; assay type: physicochemical
# Pancreas [16] = assay: Biodistribution in pancreas of NMRI nude mouse xenografted with human PC3 cells after 182 mins by gamma-counting analysis; assay type: ADME, organism-based, PC-3; details: in vivo
# Spleen [17] = assay: Biodistribution in spleen of NMRI nude mouse xenografted with human PC3 cells after 182 mins by gamma-counting analysis; assay type: ADME, organism-based, PC-3; details: in vivo
# Mus musculus [18] = assay: Biodistribution in tumor of NMRI nude mouse xenografted with human PC3 cells after 104 mins by gamma-counting analysis; assay type: ADME, organism-based, Neoplasm, PC-3; details: in vivo
# [19] = Ratio of biodistribution in tumor to blood of NMRI nude mouse xenografted with human PC3 cells after 182 mins by gamma-counting analysis; assay type: ADME, organism-based, PC-3; details: tumour
# Mus musculus [20] = assay: Biodistribution in prostate of NMRI nude mouse xenografted with human PC3 cells after 104 mins by gamma-counting analysis; assay type: ADME, organism-based, Prostate gland, PC-3; details: in vivo
# Lung [21] = assay: Biodistribution in lung of NMRI nude mouse xenografted with human PC3 cells after 182 mins by gamma-counting analysis; assay type: ADME, organism-based, PC-3; details: in vivo
# [22] = Biodistribution in urine of NMRI nude mouse xenografted with human PC3 cells after 182 mins by gamma-counting analysis; assay type: ADME, organism-based, PC-3; details: in vivo
# Mus musculus [23] = assay: Biodistribution in gallbladder of NMRI nude mouse xenografted with human PC3 cells after 104 mins by gamma-counting analysis; assay type: ADME, organism-based, Gall bladder, PC-3; details: in vivo
# Liver [24] = assay: Biodistribution in liver of NMRI nude mouse xenografted with human PC3 cells after 182 mins by gamma-counting analysis; assay type: ADME, organism-based, PC-3; details: in vivo
# [25] = Ratio of biodistribution in tumor to muscle of NMRI nude mouse xenografted with human PC3 cells after 104 mins by gamma-counting analysis; assay type: ADME, organism-based, PC-3; details: in vivo
# Bone [26] = assay: Biodistribution in bone of NMRI nude mouse xenografted with human PC3 cells after 104 mins by gamma-counting analysis; assay type: ADME, organism-based, Bone element, PC-3; details: in vivo
# Heart [27] = assay: Biodistribution in heart of NMRI nude mouse xenografted with human PC3 cells after 104 mins by gamma-counting analysis; assay type: ADME, organism-based, PC-3; details: in vivo
# Intestine [28] = assay: Biodistribution in intestine of NMRI nude mouse xenografted with human PC3 cells after 182 mins by gamma-counting analysis; assay type: ADME, organism-based, PC-3; details: in vivo
# Muscle tissue [29] = assay: Biodistribution in muscle of NMRI nude mouse xenografted with human PC3 cells after 104 mins by gamma-counting analysis; assay type: ADME, organism-based, PC-3; details: in vivo
# Heart [30] = assay: Biodistribution in heart of NMRI nude mouse xenografted with human PC3 cells after 182 mins by gamma-counting analysis; assay type: ADME, organism-based, PC-3; details: in vivo
# Bone [31] = assay: Biodistribution in bone of NMRI nude mouse xenografted with human PC3 cells after 182 mins by gamma-counting analysis; assay type: ADME, organism-based, Bone element, PC-3; details: in vivo
# Mus musculus [32] = assay: Biodistribution in adrenal gland of NMRI nude mouse xenografted with human PC3 cells after 182 mins by gamma-counting analysis; assay type: ADME, organism-based, PC-3; details: in vivo
# Kidney [33] = assay: Biodistribution in kidney of NMRI nude mouse xenografted with human PC3 cells after 104 mins by gamma-counting analysis; assay type: ADME, organism-based, PC-3; details: in vivo
# Stomach [34] = assay: Biodistribution in stomach of NMRI nude mouse xenografted with human PC3 cells after 182 mins by gamma-counting analysis; assay type: ADME, organism-based, PC-3; details: in vivo
# Pancreas [35] = assay: Biodistribution in pancreas of NMRI nude mouse xenografted with human PC3 cells after 104 mins by gamma-counting analysis; assay type: ADME, organism-based, PC-3; details: in vivo
# Spleen [36] = assay: Biodistribution in spleen of NMRI nude mouse xenografted with human PC3 cells after 104 mins by gamma-counting analysis; assay type: ADME, organism-based, PC-3; details: in vivo
# Kidney [37] = assay: Biodistribution in kidney of NMRI nude mouse xenografted with human PC3 cells after 182 mins by gamma-counting analysis; assay type: ADME, organism-based, PC-3; details: in vivo
# Blood [38] = assay: Biodistribution in blood of NMRI nude mouse xenografted with human PC3 cells after 104 mins by gamma-counting analysis; assay type: ADME, organism-based, PC-3; details: in vivo
# Intestine [39] = assay: Biodistribution in intestine of NMRI nude mouse xenografted with human PC3 cells after 104 mins by gamma-counting analysis; assay type: ADME, organism-based, PC-3; details: in vivo
# Muscle tissue [40] = assay: Biodistribution in muscle of NMRI nude mouse xenografted with human PC3 cells after 182 mins by gamma-counting analysis; assay type: ADME, organism-based, PC-3; details: in vivo
# [41] = Ratio of biodistribution in tumor to muscle of NMRI nude mouse xenografted with human PC3 cells after 182 mins by gamma-counting analysis; assay type: ADME, organism-based, PC-3; details: in vivo
smiles,measurement,setting,value
CC(C)C[C@H](NC(=O)C[C@H](O)[C@H](CC(C)C)NC(=O)[C@H](Cc1cnc[nH]1)NC(=O)CN(C)C(=O)[C@@H](NC(=O)[C@H](C)NC(=O)[C@H](Cc1c[nH]c2ccccc12)NC(=O)[C@H](CCC(N)=O)NC(=O)CCCCNC(=O)[C@H](CS(=O)(=O)O)NC(=O)[C@H](CS(=O)(=O)O)NC(=O)C(O)C(O)C(=O)NCCc1ccc([Si]([18F])(C(C)(C)C)C(C)(C)C)cc1)C(C)C)C(N)=O (stereo partly specified),Drug uptake,Stomach [1],0.42 % ID/g
same,Drug uptake,Mus musculus [2],Active
same,Drug uptake,Mus musculus [3],0.29 % ID/g
same,Drug uptake,[4],1.24 % ID/g
same,Drug uptake,Lung [5],4.2 % ID/g
same,Drug uptake,Liver [6],25 % ID/g
same,Drug uptake,Mus musculus [7],5.01 % ID/g
same,Drug uptake,Mus musculus [8],128 % ID/g
same,Drug uptake,[9],25 % ID/g
same,Drug uptake,Mus musculus [10],2.44 % ID/g
same,Drug uptake,Mus musculus [11],Not Active
same,Drug uptake,[12],0.51 % ID/g
same,Drug uptake,Blood [13],2.58 % ID/g
same,Ratio,[14],0.65
same,Stability,[15],Stable
same,Drug uptake,Pancreas [16],21 % ID/g
same,Drug uptake,Spleen [17],1.32 % ID/g
same,Drug uptake,Mus musculus [18],3.47 % ID/g
same,Ratio,[19],0.95
same,Drug uptake,Mus musculus [20],0.44 % ID/g
same,Drug uptake,Lung [21],1.94 % ID/g
same,Drug uptake,[22],20 % ID/g
same,Drug uptake,Mus musculus [23],36 % ID/g
same,Drug uptake,Liver [24],13 % ID/g
same,Ratio,[25],5.03
same,Drug uptake,Bone [26],1.09 % ID/g
same,Drug uptake,Heart [27],1.37 % ID/g
same,Drug uptake,Intestine [28],9.5 % ID/g
same,Drug uptake,Muscle tissue [29],0.69 % ID/g
same,Drug uptake,Heart [30],0.85 % ID/g
same,Drug uptake,Bone [31],0.92 % ID/g
same,Drug uptake,Mus musculus [32],2.07 % ID/g
same,Drug uptake,Kidney [33],6 % ID/g
same,Drug uptake,Stomach [34],0.8 % ID/g
same,Drug uptake,Pancreas [35],46 % ID/g
same,Drug uptake,Spleen [36],2.15 % ID/g
same,Drug uptake,Kidney [37],4.1 % ID/g
same,Drug uptake,Blood [38],5.37 % ID/g
same,Drug uptake,Intestine [39],12.6 % ID/g
same,Drug uptake,Muscle tissue [40],0.29 % ID/g
same,Ratio,[41],8.41
